In the first experiment the test system is Mia-PaCa cells (pancreatic cancer cells). To be noted: read-out: IC50 (μM) of P53, Table 2, 72 h exposure, MTS.
One may read the IC50 as the midpoint of a concentration-inhibition curve. As to “2-ferrocenyl-1,1-bis-(4-hydroxyphenyl)-5-hydroxy-pent-1-ene [P53]”, the 50% inhibitory concentration (IC50) was 1.23 µM.

For another experiment, the system named is MDA-MB-231 cells (non-hormone-dependent breast cancer cells). The experiment is classed as cell-based.
Conditions: not given
Take “1,1-bis-(4-hydroxyphenyl)-5-hydroxy-2-ruthenocenyl-pent-1-en [W3]”: the midpoint of inhibition, the IC50, lay at 12.5 µM.

Substance “2,3-Dihydro-3-hydroxy-2-[4-ferrocenyl-5,5-bis-(4-hydroxyphenyl)-pent-4-enyl]-1H-isoindol-1-one [P710]” gave an IC50 of 0.59 µM.

For the substance “2,3-Dihydro-3-methoxy-2-[5-ferrocenyl-6,6-bis-(4-hydroxyphenyl)-hex-5-enyl]-1H-isoindol-1-one [P727]”, half-maximal inhibition (IC50) was put at 1.63 µM.

For “2-ferrocenyl-1,1-bis-(4-hydroxyphenyl)-5-dimethylamino-pent-1-ene [P697]”, half-maximal inhibition (IC50) was put at 2.53 µM.

In turn, “2-ferrocenyl-1-(4-hydroxyphenyl)-5-hydroxy-1-phenyl-pent-1-ene [P681]” yielded a concentration for half-maximal inhibition (IC50) of 1.22 µM.

With “Ethyl 3-ene-3-ferrocenyl-4,4-bis-(4-hydroxyphenyl)-butanoate [P64]”, the IC50 worked out at 1.16 µM.

“Methyl 6-ene-6-ferrocenyl-7,7-bis-(4-hydroxyphenyl)-heptanoate [P504]”: the concentration for half-maximal inhibition (IC50) turned out to be 0.62 µM.

“N-{4-ferrocenyl-5,5-bis-(4-hydroxyphenyl)-pent-4-enyl}phthalimide [P686]”: inhibition was half-maximal at 0.2 µM (IC50).

Consider “N-{5-ferrocenyl-6,6-bis-(4-hydroxyphenyl)-hex-5-enyl}phthalimide [P720]”, for which the IC50 amounted to 0.33 µM.

The next experiment has as its system PC3 cells (non-hormone-dependent prostate cancer cells). The settings on record: read-out: IC50 (μM) of P53, Table 2, 72 h exposure, MTS.
Consider “2-ferrocenyl-1,1-bis-(4-hydroxyphenyl)-5-hydroxy-pent-1-ene [P53]”, for which the half-inhibitory concentration (IC50) was 4.43 µM.

(Values after patent US9758541B2 (priority 2013, dated 2017).)
